Counter-ions that a name gives are not always drawn. Like-named read-outs stand apart in the source and are kept apart here.
Tests used:
[1] = test system: C. albicans SC5314 biofilms; assay: Checkerboard assay, biofilm formation inhibition; format: cell-based; settings: Candida albicans, CTB assay, mean ± SEM
Protocol: The Biofilm Inhibitory Concentration 50 value (BIC50; the minimum concentration required to reduce biofilm formation by 50% as compared to control treatment) of rHsAFP1 was determined using the following antibiofilm assay: a C. albicans SC5314 overnight culture, grown in YPD, was diluted to an optical density (600 nm) of 0.1 in RPMI 1640 medium and 100 μL of this suspension was added to the wells of a round-bottomed microtitre plate (TPP, Tradingen, Switzerland). After 1 h of adhesion at 37°C, the medium was aspirated and the biofilms were washed with 100 μL phosphate-buffered saline (PBS) to remove non-adherent cells. Fresh RPMI 1640 medium, followed by an rHsAFP1 concentration series was added to the biofilms. The DMSO concentration was similar to that in the checkerboard assays, i.e. 0.5%. Biofilms were allowed to grow for 24 h at 37°C and were subsequently washed with PBS and quantified with CellTiter-Blue (CTB; Promega, WI, USA)) by adding 100 μL of CTB diluted 1/10 in PBS to each well. After 1 h of incubation in the dark at 37°C, the fluorescence was measured with a fluorescence spectrometer (λEx/λEm: 535/590 nm). The fluorescence values of the samples were corrected by subtracting the average fluorescence value of the CTB of uninoculated wells (blank). The percentage of surviving biofilm cells was calculated relative to the control treatment (0.5% DMSO).
C. albicans biofilms or C. albicans planktonic cultures were grown as described above. A combination of rHsAFP1 and antimycotic (caspofungin or amphotericin B), two-fold diluted across the columns and rows of a 96-well plate, respectively, was added to the planktonic culture or to the biofilms. […] Synergy was determined by calculating the Fractional Inhibitory Concentration Index (FICI), in which the actual concentration of compound A (i.e. rHsAFP1) in the checkerboard experiment was used, as indicated in Tables 1–3 and 4.
(§1) Data were analysed with GraphPad Prism (GraphPad Software, Inc., CA, USA). […]

[2] = test system: C. albicans SC5314 planktonic cultures; assay: Checkerboard assay, planktonic cultures; format: cell-based; settings: Candida albicans, antimycotic alone, [rHsAFP1] 0 μM, OD at 490 nm, mean ± SEM, n ≥ 3, read-out: MIC50 CAS or AMB
Source text: To test whether rHsAFP1 is as potent as HsAFP1 purified from the seeds of coral bells, we analysed the antifungal activity of both peptides against F. culmorum, following the standard CLSI protocol M28-A2 [50], with minor modifications as previously described by Osborn and colleagues: an inoculum of approximately 10^4 spores/mL of F. culmorum was suspended in half strength PDB and added to a two-fold dilution series of rHsAFP1 in water. Seed-derived HsAFP1 was purified according to the protocol as previously described by Osborn and colleagues. […] The antifungal activity of rHsAFP1 against C. albicans was subsequently analysed according to the standard CLSI protocol M27-A3 [51] with minor modifications: an inoculum of approximately 10^6 cells/mL was suspended in RPMI-1640 medium and added to a two-fold dilution series of rHsAFP1 in water. The DMSO concentration was similar to that in the biofilm assays, i.e. 0.5% DMSO.
(§2) C. albicans biofilms or C. albicans planktonic cultures were grown as described above. […] Synergy was determined by calculating the Fractional Inhibitory Concentration Index (FICI), in which the actual concentration of compound A (i.e. rHsAFP1) in the checkerboard experiment was used, as indicated in Tables 1–3 and 4.
as §1

[3] = test system: C. albicans SC5314 biofilms (24 hours-old); assay: Checkerboard assay, biofilm eradication; format: cell-based; settings: Candida albicans, antimycotic alone, [rHsAFP1] 0 μM, CTB assay, mean ± SEM, n ≥ 3, read-out: BEC50 CAS or AMB
Protocol: The Biofilm Eradicating Concentration 50 value (BEC50; the minimum concentration required to reduce the viability of the cells in a pre-grown biofilm by 50% as compared to control treatment) of rHsAFP1 was determined using the BEC50 determination assay as described by De Cremer and co-workers. Briefly, a C. albicans SC5314 overnight culture, grown in YPD, was diluted to an optical density (600 nm) of 0.1 in RPMI 1640 medium and 100 μL of this suspension was added to the wells of a round-bottomed microtitre plate (TPP, Tradingen, Switzerland). After 1 h of adhesion, the biofilms were washed with 100 μL PBS to remove non-adherent cells, followed by addition of 100 μL RPMI 1640 medium. The biofilms were allowed to grow for 24 h at 37°C. Next, an rHsAFP1 concentration series in RPMI was added to the biofilms. […] The biofilms were incubated for another 24 h at 37°C, after which they were washed and quantified with CTB as described above.
as §2, §1

[4] = test system: C. albicans and C. glabrata biofilms; design: method as in PMID 24284780; settings: combination with caspofungin; cited from earlier work
[5] = antimycotic alone, [rHsAFP1] 0 μM, n ≥ 3, read-out: BIC50 CAS or AMB

| SMILES | IC50 ([1]; CAS alone, [HsLin06] 0 μM, n ≥ 3, read-out: BIC50 CAS) [nM] | IC50 [1, 5] [nM] | MIC50 [2] [µM] | IC50 [3] [nM] | fold reduction of the caspofungin BIC50 [4] |
| --- | --- | --- | --- | --- | --- |
| CC[C@H](C)C[C@H](C)CCCCCCCCC(=O)N[C@H]1C[C@@H](O)[C@@H](NCCN)NC(=O)[C@@H]2[C@@H](O)CCN2C(=O)[C@H]([C@H](O)CCN)NC(=O)[C@H]([C@H](O)[C@@H](O)c2ccc(O)cc2)NC(=O)[C@@H]2C[C@@H](O)CN2C(=O)[C@H]([C@@H](C)O)NC1=O [CAS alone, caspofungin] | 900 ± 50 | 720 ± 50 | 0.02 ± 0.01 | 400 ± 80 |  |
| C[C@@H]1[C@H](O)[C@@H](C)/C=C/C=C/C=C/C=C/C=C/C=C/C=C/[C@H](O[C@@H]2O[C@H](C)[C@@H](O)[C@H](N)[C@@H]2O)C[C@@H]2O[C@](O)(C[C@@H](O)C[C@@H](O)[C@H](O)CC[C@@H](O)C[C@@H](O)CC(=O)O[C@H]1C)C[C@H](O)[C@H]2C(=O)O [AMB alone, amphotericin B] |  | 1230 ± 150 | 0.44 ± 0.06 | 1670 ± 300 |  |
| CN(C)CCOc1ccc(/C(=C(/CCCl)c2ccccc2)c2ccccc2)cc1 [toremifene citrate] |  |  |  |  | up to 20 fold |

— paper PMC4527839, “Synergistic Activity of the Plant Defensin HsAFP1 and Caspofungin against Candida albicans Biofilms and Planktonic Cultures” (PLoS ONE, 2015)
